Experimental data as given in ChEMBL document CHEMBL1221369, “Cytotoxic isomalabaricane derivatives and a monocyclic triterpene glycoside from the sponge Rhabdastrella globostellata” (J Nat Prod, 2010).
Activity calls are given as the source filed them. The rule behind the calls is not given here.

Assays:
HL-60 (human) [1] = assay: Cytotoxicity against human HL-60 cells by MTT assay
HL-60 (human) [2] = assay: Cytotoxicity against human HL-60 cells at 100 uM by MTT assay
HL-60 (human) [3] = assay: Effect on Bcl-2 expression in human HL-60 cells at 10 uM by immunoblot analysis
HL-60 (human) [4] = assay: Induction of apoptosis in human HL-60 cells assessed as pro-caspase 3 cleavage at 10 uM by immunoblot analysis
HL-60 (human) [5] = assay: Induction of apoptosis in human HL-60 cells at 10 uM after 72 hrs by FITC-conjugated annexin V staining-based FACS analysis

Structure (SMILES)	IC50 (HL-60 (human) [1]) [µM]	Activity (HL-60 (human) [2])	Activity (HL-60 (human) [3])	Activity (HL-60 (human) [4])	Activity (HL-60 (human) [5]) [%]
C=C(C)[C@@H]1C[C@@H](OC(C)=O)[C@](C)(OC(C)=O)[C@H]1/C=C/C(C)=C1\C(=O)C[C@H]2[C@@]3(C)CC[C@H](OC(C)=O)C(C)(C)[C@@H]3CC[C@]12C [RHABDASTIN D DIACETATE]	11				
COC(=O)/C(C)=C1\C(=O)C[C@H]2[C@@]3(C)CC[C@H](OC(C)=O)[C@](C)(C(=O)OC)[C@@H]3CC[C@]12C		inactive			
CC(=O)O[C@H]1CC[C@@]2(C)[C@@H](CC[C@]3(C)/C(=C(C)/C=C/[C@H]4[C@H](C(C)(C)O)C[C@@H](O)[C@]4(C)O)C(=O)C[C@@H]23)C1(C)C [RHABDASTIN G]	44				
COC(=O)/C(C)=C1\C(=O)C[C@H]2[C@@]3(C)CC[C@H](OC(C)=O)C(C)(C)[C@@H]3CC[C@]12C		inactive			
COC(=O)/C(C)=C1\C(=O)C[C@H]2[C@@]3(C)CC[C@H](O)C(C)(C)[C@@H]3CC[C@]12C		inactive			
C=C(C)[C@@H]1C[C@@H](O)[C@](C)(O)[C@H]1/C=C/C(C)=C1\C(=O)C[C@H]2[C@@]3(C)CC[C@H](OC(C)=O)C(C)(C)[C@@H]3CC[C@]12C [RHABDASTIN E]	29		inactive	Active	17
C=C(C)[C@@H]1C[C@H](O)[C@](C)(O)[C@H]1/C=C/C(C)=C1\C(=O)C[C@H]2[C@@]3(C)CC[C@H](OC(C)=O)C(C)(C)[C@@H]3CC[C@]12C [RHABDASTIN D]	21		inactive	Active	18
